Blank lines part the entries; values can stand above or below the compound they belong to.
Experiments:
[1] = Antiproliferative activity against human EFM-192A cells assessed as reduction in cell growth measured for 24 hrs by MTT assay; assay type: functional, cell-based
[2] = target: Phosphatidylinositol 4,5-bisphosphate 3-kinase catalytic subunit alpha isoform (Homo sapiens, UniProt P42336); test: Inhibition of PI3Kalpha (unknown origin)
[3] = target: Serine/threonine-protein kinase mTOR (Homo sapiens, UniProt P42345); test: Inhibition of mTOR (unknown origin)
MCF7 = test: Antiproliferative activity against human MCF7 cells assessed as reduction in cell viability by MTT assay; assay type: functional, cell-based
MDA-MB-231 = test: Antiproliferative activity against human MDA-MB-231 cells assessed as reduction in cell viability by MTT assay; assay type: functional, cell-based
[4] = Growth inhibition of human Triple-negative breast cancer cell incubated for 24 hrs by MTT assay; assay type: functional

Phosphatidylinositol 4,5-bisphosphate 3-kinase catalytic subunit alpha isoform, sequence (P42336 whole entry, canonical isoform): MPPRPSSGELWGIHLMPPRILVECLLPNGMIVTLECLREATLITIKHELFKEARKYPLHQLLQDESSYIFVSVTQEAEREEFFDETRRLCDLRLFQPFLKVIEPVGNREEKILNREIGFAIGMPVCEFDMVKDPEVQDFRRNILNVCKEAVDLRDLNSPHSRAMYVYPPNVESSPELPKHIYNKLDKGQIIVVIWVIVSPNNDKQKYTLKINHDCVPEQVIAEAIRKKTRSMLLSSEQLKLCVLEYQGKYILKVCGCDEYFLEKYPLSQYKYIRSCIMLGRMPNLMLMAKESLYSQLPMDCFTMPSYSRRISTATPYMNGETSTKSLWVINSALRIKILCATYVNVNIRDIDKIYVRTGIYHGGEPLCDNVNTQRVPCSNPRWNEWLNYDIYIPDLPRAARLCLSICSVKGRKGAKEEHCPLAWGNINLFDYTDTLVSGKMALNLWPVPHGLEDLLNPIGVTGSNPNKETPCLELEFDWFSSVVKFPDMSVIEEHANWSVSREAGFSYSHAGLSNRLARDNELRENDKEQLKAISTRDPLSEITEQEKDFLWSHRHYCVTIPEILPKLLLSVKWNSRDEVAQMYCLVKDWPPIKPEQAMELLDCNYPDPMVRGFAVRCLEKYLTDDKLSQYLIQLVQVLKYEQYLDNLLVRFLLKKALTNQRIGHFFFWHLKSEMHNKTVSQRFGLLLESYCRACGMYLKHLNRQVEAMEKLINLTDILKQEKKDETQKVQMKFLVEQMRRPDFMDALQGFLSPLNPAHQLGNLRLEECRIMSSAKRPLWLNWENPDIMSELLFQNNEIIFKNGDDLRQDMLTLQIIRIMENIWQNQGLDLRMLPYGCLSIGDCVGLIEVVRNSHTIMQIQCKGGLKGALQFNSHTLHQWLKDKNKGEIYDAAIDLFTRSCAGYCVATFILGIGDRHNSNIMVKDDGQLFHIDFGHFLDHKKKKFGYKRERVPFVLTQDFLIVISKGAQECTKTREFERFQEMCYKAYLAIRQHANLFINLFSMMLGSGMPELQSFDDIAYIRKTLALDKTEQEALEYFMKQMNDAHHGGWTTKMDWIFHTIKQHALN

Compound: COc1ccc(CCc2cc(OC)c(OC)c(OC)c2)cc1O
IC50 [1]: 78.6 nM

IC50 [2]: 291 nM
IC50 [3]: 60.8 nM
IC50 (MCF7): 2 nM
IC50 (MDA-MB-231): 2 nM
Compound: CS(=O)(=O)N1CCN(Cc2ccc(-c3nc(-c4ccc(NC(=O)Nc5cccnc5)cc4)nc(N4CCOCC4)n3)s2)CC1

Compound: N#Cc1ccc(CN2C(=O)c3cc4ccccc4n3C[C@H]2C(=O)NCc2ccccc2)cc1
GI50 [4]: 2960 nM

Reference: ChEMBL document CHEMBL6092127, “Recent advancement in developing small molecular inhibitors targeting key kinase pathways against triple-negative breast cancer” (Bioorg Med Chem, 2024)
